Experimental data as given in patent US20050245399A1, “Pyrazole derivatives as herbicidal compositions containing them” (ISHIHARA SANGYO KAISHA, LTD., priority 2004, published 2005).

Assays:
Assay type in all cases: in vivo
[1] = test system: barnyardgrass (Echinochiloa oryzicola: ECHOR); assay: Test Example 3 water application herbicidal activity (paddy), ECHOR; settings: 63 g a.i./ha, water application under submerged condition at 0.5 leaf stage, visually observed 14th day after application; 0 = untreated control, 100 = complete kill
Text: (§1) Paddy field soil was put into a 1/1,000,000 ha pot and seeds of barnyardgrass (Echinochiloa oryzicola: ECHOR) and japanese bulrush (Scirpus juncoides: SCPJO) were sown and slightly covered with soil. Then the pot was left to stand still in a greenhouse in a state where the depth of flooding water was from 0.5 to 1 cm, and one day later, tubers of japanese ribbon wapato (Sagittaria pygmaea: SA GPY) were planted. Thereafter, the depth of flooding water was maintained at a level of from 3 to 4 cm, and when barnyardgrass and japanese bulrush reached a 0.5 leaf stage, an aqueous diluted solution of a wettable powder or emulsifiable concentrate having the compound of the present invention formulated in accordance with a usual formulation method, was uniformly applied under submerged condition by a pipette so that the dose of the active ingredient would be at a predetermined level. On the other hand, paddy filed soil was put into a 1/1,000,000 ha pot and puddled and leveled, and the depth of flooding water was from 3 to 4 cm. One day later, rice (Oryza sativa L.: ORYSA) of 2 leaf stage was transplanted in a depth of 3 cm. On the 4th day after the transplantation, the compound of the present invention was applied in the same manner as described above. On the 14th day after the application of the herbicide, the growth of barnyardgrass, japanese burlush and japanese ribbon wapato was visually observed and on the 21st day after the application of the herbicide, the growth of rice was visually observed, and the herbicidal effects were evaluated by growth controlling degrees (%) ranging from 0 (equivalent to the untreated control) to 100 (complete kill), whereby the results shown in Table 6, were obtained. Compound Nos. in Table 6 correspond to Compound Nos. in Table 1 and 2 given hereinbefore.

[2] = test system: wheat (Triticum aestivum L.): TRZAX; assay: Test Example 1 pre-emergence herbicidal activity, TRZAX; settings: visually observed 20th to 23rd day after application
How it was run: (§2)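 Scoring was visual growth control (0 = untreated, 100 = complete kill) on days 20–23 post-application. Treatment came as a pre-emergence spray one day after sowing in upland soil, using wettable powder or emulsifiable concentrate diluted in 500 L/ha water at predetermined active-ingredient amounts.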

[3] = test system: soybean (Glycine max Merr.), GLXMA; assay: Test Example 2 post-emergence (foliage treatment) herbicidal activity, GLXMA; settings: 63 g a.i./ha
How it was run: (§3)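 Foliar spray of formulated compound (500 L/ha dilution water, 0.1% v/v spreader) onto young potted plants at defined leaf stages. Scored 0-100% by visual inspection 20-23 d post-spray.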

[4] = test system: prickly sida (Sida spinosa L.), SIDSP; assay: Test Example 2 post-emergence (foliage treatment) herbicidal activity, SIDSP; settings: 63 g a.i./ha
How it was run: as §3

[5] = test system: rice (Oryza sativa L.), ORYSA; assay: Test Example 2 post-emergence (foliage treatment) herbicidal activity, ORYSA; settings: 63 g a.i./ha
How it was run: (§4)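 Visual rating of growth control, from 0 (untreated-like) to 100 (complete kill), was done 20–23 days after post-emergence spraying. Wettable powder or emulsifiable concentrate was diluted to 500 L/ha with 0.1% (v/v) spreader. Leaf stages at application were 1.1-2.1 (ECHCG), 1.0-2.0 (DIGSA), 0.1-1.5 (AMARE) and 1.0-2 (ORYSA).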

[6] = test system: soybean (Glycine max Merr.): GLXMA; assay: Test Example 1 pre-emergence herbicidal activity, GLXMA; settings: visually observed 20th to 23rd day after application
How it was run: as §2

[7] = test system: green foxtail (Setaria viridis L.): SETVI; assay: Test Example 1 pre-emergence herbicidal activity, SETVI; settings: visually observed 20th to 23rd day after application
How it was run: as §2

[8] = test system: crabgrass (Digitaria sanguinalis L.): DIGSA; assay: Test Example 1 pre-emergence herbicidal activity, DIGSA; settings: visually observed 20th to 23rd day after application
How it was run: as §2

[9] = test system: corn (Zea mays L.), ZEAMX; assay: Test Example 2 post-emergence (foliage treatment) herbicidal activity, ZEAMX; settings: 63 g a.i./ha
How it was run: as §3

[10] = test system: wheat (Triticum aestivum L.), TRZAX; assay: Test Example 2 post-emergence (foliage treatment) herbicidal activity, TRZAX; settings: 63 g a.i./ha
How it was run: as §3

[11] = test system: corn (Zea mays L.): ZEAMX; assay: Test Example 1 pre-emergence herbicidal activity, ZEAMX; settings: visually observed 20th to 23rd day after application
How it was run: as §2

[12] = test system: velvetleaf (Abutilon theophrasti), ABUTH; assay: Test Example 2 post-emergence (foliage treatment) herbicidal activity, ABUTH; settings: 63 g a.i./ha
How it was run: as §3

[13] = test system: barnyardgrass (Echinochloa crus-galli L.), ECHCG; assay: Test Example 2 post-emergence (foliage treatment) herbicidal activity, ECHCG; settings: 63 g a.i./ha
How it was run: as §4

[14] = test system: crabgrass (Digitaria sanguinalis L.), DIGSA; assay: Test Example 2 post-emergence (foliage treatment) herbicidal activity, DIGSA; settings: 63 g a.i./ha
How it was run: as §4

[15] = test system: rice (Oryza sativa L.): ORYSA; assay: Test Example 1 pre-emergence herbicidal activity, ORYSA; settings: visually observed 20th to 23rd day after application
How it was run: as §2

[16] = test system: japanese bulrush (Scirpus juncoides: SCPJO); assay: Test Example 3 water application herbicidal activity (paddy), SCPJO; settings: 63 g a.i./ha, water application under submerged condition at 0.5 leaf stage, visually observed 14th day after application; 0 = untreated control, 100 = complete kill
Text: as §1

[17] = test system: prickly sida (Sida spinosa L.): SEDSP; assay: Test Example 1 pre-emergence herbicidal activity, SIDSP; settings: visually observed 20th to 23rd day after application
How it was run: as §2

[18] = test system: barnyardgrass (Echinochloa crus-galli L.): ECHCG; assay: Test Example 1 pre-emergence herbicidal activity, ECHCG; settings: visually observed 20th to 23rd day after application
How it was run: as §2

[19] = test system: green foxtail (Setaria viridis L.), SETVI; assay: Test Example 2 post-emergence (foliage treatment) herbicidal activity, SETVI; settings: 63 g a.i./ha
How it was run: as §3

[20] = test system: redroot pigweed (Amaranthus retroflexus L.): AMARE; assay: Test Example 1 pre-emergence herbicidal activity, AMARE; settings: visually observed 20th to 23rd day after application
How it was run: as §2

[21] = test system: velvetleaf (Abutilon theophrasti): ABUTH; assay: Test Example 1 pre-emergence herbicidal activity, ABUTH; settings: visually observed 20th to 23rd day after application
How it was run: as §2

[22] = test system: rice (Oryza sativa L.: ORYSA); assay: Test Example 3 water application herbicidal activity (paddy), transplanted rice ORYSA; settings: 63 g a.i./ha, water application 4th day after transplantation of 2 leaf stage rice, visually observed 21st day after application; 0 = untreated control, 100 = complete kill
Text: as §1

[23] = test system: japanese ribbon wapato (Sagittaria pygmaea: SA GPY); assay: Test Example 3 water application herbicidal activity (paddy), SAGPY; settings: 63 g a.i./ha, water application under submerged condition, tubers planted, visually observed 14th day after application; 0 = untreated control, 100 = complete kill
Text: as §1

Compound | growth controlling degrees (%) ECHOR [1] | Pre-emergence Herbicidal Activity TRZAX (growth controlling degree) ([2]; Rate 63 g a.i./ha) | growth controlling degree, GLXMA [3] | growth controlling degree, SIDSP [4] | growth controlling degree, ORYSA [5] | Pre-emergence Herbicidal Activity GLXMA (growth controlling degree) ([6]; Rate 63 g a.i./ha) | Pre-emergence Herbicidal Activity SETVI (growth controlling degree) ([7]; Rate 63 g a.i./ha) | Pre-emergence Herbicidal Activity DIGSP (growth controlling degree) ([8]; Rate 63 g a.i./ha) | growth controlling degree, ZEAMX [9] | growth controlling degree, TRZAX [10] | Pre-emergence Herbicidal Activity ZEAMX (growth controlling degree) ([11]; Rate 63 g a.i./ha) | growth controlling degree, ABUTH [12] | growth controlling degree, ECHCO [13] | growth controlling degree, DIGSP [14] | Pre-emergence Herbicidal Activity ORYSA (growth controlling degree) ([15]; Rate 63 g a.i./ha) | growth controlling degrees (%) SCPJO [16] | Pre-emergence Herbicidal Activity SIDSP (growth controlling degree) ([17]; Rate 63 g a.i./ha) | growth controlling degree, SETVI [19] | growth controlling degrees (%) ORYSA [22] | growth controlling degrees (%) SAGPY [23] | other results
COCC(=O)Nc1c(OC)c(Cl)cc(F)c1-c1nn(C)c(OC(F)F)c1Cl [Compound 1-16] | 100% | 10% | 95% | 100% | 80% | 10% | 100% | 100% | 70% | 50% | 40% | 100% | 80% | 80% | 40% | 98% | 100% | 100% | 70% | 100% | Pre-emergence Herbicidal Activity ECHCG (growth controlling degree) ([18]; Rate 63 g a.i./ha): 100%; Pre-emergence Herbicidal Activity AMARE (growth controlling degree) ([20]; Rate 63 g a.i./ha): 100%; Pre-emergence Herbicidal Activity ABUTH (growth controlling degree) ([21]; Rate 63 g a.i./ha): 100%
COc1c(Cl)cc(F)c(-c2nn(C)c(OC(F)F)c2Cl)c1N(C(=O)OCCCl)C(=O)OCCCl [Compound 1-52] | 100% | – | 30% | 90% | 40% | – | – | – | 10% | 10% | – | 80% | 50% | 30% | – | 50% | – | 30% | 20% | 0% | Pre-emergence Herbicidal Activity TRZAX (growth controlling degree) ([2]; Rate 125 g a.i./ha): 0%; Pre-emergence Herbicidal Activity GLXMA (growth controlling degree) ([6]; Rate 125 g a.i./ha): 0%; Pre-emergence Herbicidal Activity SETVI (growth controlling degree) ([7]; Rate 125 g a.i./ha): 50%; Pre-emergence Herbicidal Activity DIGSP (growth controlling degree) ([8]; Rate 125 g a.i./ha): 30%; Pre-emergence Herbicidal Activity ZEAMX (growth controlling degree) ([11]; Rate 125 g a.i./ha): 0%; Pre-emergence Herbicidal Activity ORYSA (growth controlling degree) ([15]; Rate 125 g a.i./ha): 0%; Pre-emergence Herbicidal Activity SIDSP (growth controlling degree) ([17]; Rate 125 g a.i./ha): 0%; Pre-emergence Herbicidal Activity ECHCG (growth controlling degree) ([18]; Rate 125 g a.i./ha): 0%; Pre-emergence Herbicidal Activity AMARE (growth controlling degree) ([20]; Rate 125 g a.i./ha): 100%; Pre-emergence Herbicidal Activity ABUTH (growth controlling degree) ([21]; Rate 125 g a.i./ha): 0%
Cn1nc(-c2c(F)cc(Cl)c(OC(F)F)c2NS(C)(=O)=O)c(Cl)c1OC(F)F [Compound 1-84] | 60% | 0% | 50% | 70% | 10% | 0% | 20% | 50% | 20% | 0% | 0% | 80% | 20% | 0% | 10% | 90% | 0% | 10% | 30% | 95% | Pre-emergence Herbicidal Activity ECHCG (growth controlling degree) ([18]; Rate 63 g a.i./ha): 0%; Pre-emergence Herbicidal Activity AMARE (growth controlling degree) ([20]; Rate 63 g a.i./ha): 70%; Pre-emergence Herbicidal Activity ABUTH (growth controlling degree) ([21]; Rate 63 g a.i./ha): 0%
[3-chloro-6-[4-chloro-5-(difluoromethoxy)-1-methyl-1H-pyrazol-3-yl]-5-fluoro-2-methoxyphenyl]2-propynyl-formamide [Compound 1-7] | 95% | – | 50% | 100% | 40% | – | – | – | 40% | 10% | – | 100% | 50% | 10% | – | 60% | – | 70% | 20% | 0% | Pre-emergence Herbicidal Activity TRZAX (growth controlling degree) ([2]; Rate 125 g a.i./ha): 20%; Pre-emergence Herbicidal Activity GLXMA (growth controlling degree) ([6]; Rate 125 g a.i./ha): 10%; Pre-emergence Herbicidal Activity SETVI (growth controlling degree) ([7]; Rate 125 g a.i./ha): 95%; Pre-emergence Herbicidal Activity DIGSP (growth controlling degree) ([8]; Rate 125 g a.i./ha): 100%; Pre-emergence Herbicidal Activity ZEAMX (growth controlling degree) ([11]; Rate 125 g a.i./ha): 0%; Pre-emergence Herbicidal Activity ORYSA (growth controlling degree) ([15]; Rate 125 g a.i./ha): 20%; Pre-emergence Herbicidal Activity SIDSP (growth controlling degree) ([17]; Rate 125 g a.i./ha): 90%; Pre-emergence Herbicidal Activity ECHCG (growth controlling degree) ([18]; Rate 125 g a.i./ha): 70%; Pre-emergence Herbicidal Activity AMARE (growth controlling degree) ([20]; Rate 125 g a.i./ha): 100%; Pre-emergence Herbicidal Activity ABUTH (growth controlling degree) ([21]; Rate 125 g a.i./ha): 80%
